Data as given in patent US6461997B1, “Triazole sulfones having herbicidal activity” (Monsanto Technology LLC, priority 1999, dated 2002).

Assays:
PANDI (fall panicum) = test: Pre-plant incorporated (PPI) herbicidal activity, warm season; format: in vivo, Panicum dichotomiflorum; details: pre-plant incorporated; lowest tested rate with 80% or greater inhibition; about 14 days
Procedure: (§1) In another set of tests, the pre-plant incorporated (PPI) activity of compounds of this invention was evaluated on the same species as for the pre-emergence tests described above. In the PPI tests the following procedure, designed to simulate PPI application, was used.
(§2) A pre-prepared topsoil mixture (described above) was placed in a pot and compacted to a depth of 1.0 to 1.25 cm from the top of the pot. Seeds of each of several monocotyledonous and dicotyledonous annual plant species were placed on top of the soil. A sufficient quantity of soil to cover the seeds and level fill the pot was weighed into an open container. A known amount of the test compound was dissolved or suspended in an organic solvent and applied by spraying to this cover soil. The cover soil was thoroughly mixed to distribute the test compound throughout the cover soil, and was then applied as a cover layer over the seeds. Untreated soil was used as a cover layer for control pots. After treatment the plants were placed in a greenhouse where they received 0.64 cm of overhead irrigation. All subsequent watering consisted of a light overhead mist and/or subirrigation as needed for germination and growth. Tables 9 and 10 below relate to warm season plant species which were placed after pre-emergence treatment in a greenhouse with a 30/21° C. day/night temperature regime. Tables 11 and 12 below relates to cool season plant species placed after pre-emergence treatment in a greenhouse or growth chamber with an 18/13° C. day/night temperature regime. Only the compounds of Examples 1, 6, 8, 11, 13 and 15-20 were included in PPI tests.
(§3) Approximately 14 days after planting and treating, the plants were observed and herbicidal efficacy recorded as percent inhibition by comparison with untreated plants.

AMARE (redroot pigweed) = test: as above; format: in vivo, Amaranthus retroflexus
Procedure: as §1, §2, §3

[1] = tested on: PANMI (wild proso millet); test: as above; format: in vivo, Panicum miliaceum
Procedure: as §1, §2, §3

POLCO (wild buckwheat) = test: Pre-plant incorporated (PPI) herbicidal activity, cool season; format: in vivo, Polygonum convolvulus; details: pre-plant incorporated; lowest tested rate with 80% or greater inhibition; about 14 days
Procedure: as §1, §2, §3

DATST (jimsonweed) = test: Pre-plant incorporated (PPI) herbicidal activity, warm season; format: in vivo, Datura stramonium
Procedure: as §1, §2, §3

ALOMY (blackgrass) = test: Pre-plant incorporated (PPI) herbicidal activity, cool season; format: in vivo, Alopecurus myosuroides; details: pre-plant incorporated; lowest tested rate with 80% or greater inhibition; about 14 days
Procedure: as §1, §2, §3

SOLNI (black nightshade) = test: Pre-emergence herbicidal activity, warm season; format: in vivo, Solanum nigrum
Summary of the method: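 GR80 values derive from percent inhibition relative to untreated plants, read roughly 14 days after sowing and pre-emergence soil-surface treatment (compound in 50:50 acetone/water; rates typically 10, 30, 100, 300 g/ha). Warm-season weeds grew at 30/21° C day/night, cool-season ones at 18/13° C; an asterisk marks activity without reaching 80% at the highest rate.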

SINAR (wild mustard) = test: Pre-plant incorporated (PPI) herbicidal activity, cool season; format: in vivo, Sinapis arvensis; details: pre-plant incorporated; lowest tested rate with 80% or greater inhibition; about 14 days
Procedure: as §1, §2, §3

BROTE (downy brome) = test: as above; format: in vivo, Bromus tectorum; details: pre-plant incorporated; lowest tested rate with 80% or greater inhibition; about 14 days
Procedure: as §1, §2, §3

[2] = pre-plant incorporated, GR80 = lowest tested rate with 80% or greater inhibition, approx. 14 days after treating, 30/21° C.

## CCN(CC)C(=O)n1cnc(S(=O)(=O)C(F)F)n1 [Example 15, 1-(N,N-diethylcarbamoyl)-3-(difluoromethylsulfonyl)-1,2,4-triazole]
PANDI (fall panicum)
  PPI activity GR80, PANDI: 100 g/ha
AMARE (redroot pigweed); Amaranthus retroflexus, PPI application, 10 g/ha, read-out: Percent inhibition AMARE
  inhibition at 10 g/ha: 20%
AMARE (redroot pigweed); Amaranthus retroflexus, PPI application, 30 g/ha, read-out: Percent inhibition AMARE
  inhibition at 30 g/ha: 100%
AMARE (redroot pigweed); Amaranthus retroflexus, PPI application, 100 g/ha, read-out: Percent inhibition AMARE
  inhibition at 100 g/ha: 80%
AMARE (redroot pigweed); Amaranthus retroflexus, PPI application, 300 g/ha, read-out: Percent inhibition AMARE
  inhibition at 300 g/ha: 100%
AMARE (redroot pigweed); Amaranthus retroflexus, PPI application, 900 g/ha, read-out: Percent inhibition AMARE
  inhibition at 900 g/ha: 100%
AMARE (redroot pigweed); [2]
  PPI activity (GR80) AMARE: 100 g/ha
[1]; Panicum miliaceum, PPI application, 10 g/ha, read-out: Percent inhibition PANMI
  inhibition at 10 g/ha: 10%
[1]; Panicum miliaceum, PPI application, 30 g/ha, read-out: Percent inhibition PANMI
  inhibition at 30 g/ha: 70%
[1]; Panicum miliaceum, PPI application, 100 g/ha, read-out: Percent inhibition PANMI
  inhibition at 100 g/ha: 99%
[1]; Panicum miliaceum, PPI application, 300 g/ha, read-out: Percent inhibition PANMI
  inhibition at 300 g/ha: 100%
[1]; Panicum miliaceum, PPI application, 900 g/ha, read-out: Percent inhibition PANMI
  inhibition at 900 g/ha: 100%
[1]; pre-plant incorporated, lowest tested rate with 80% or greater inhibition, about 14 days
  PPI activity GR80, PANMI: 30 g/ha
POLCO (wild buckwheat)
  PPI activity GR80, POLCO: 300 g/ha
DATST (jimsonweed); Datura stramonium, PPI application, 10 g/ha, read-out: Percent inhibition DATST
  inhibition at 10 g/ha: 0%
DATST (jimsonweed); Datura stramonium, PPI application, 30 g/ha, read-out: Percent inhibition DATST
  inhibition at 30 g/ha: 0%
DATST (jimsonweed); Datura stramonium, PPI application, 100 g/ha, read-out: Percent inhibition DATST
  inhibition at 100 g/ha: 0%
DATST (jimsonweed); Datura stramonium, PPI application, 300 g/ha, read-out: Percent inhibition DATST
  inhibition at 300 g/ha: 65%
DATST (jimsonweed); Datura stramonium, PPI application, 900 g/ha, read-out: Percent inhibition DATST
  inhibition at 900 g/ha: 90%
DATST (jimsonweed); [2]
  PPI activity (GR80) DATST: 300 g/ha
ALOMY (blackgrass)
  PPI activity GR80, ALOMY: 100 g/ha
SOLNI (black nightshade); GR80 = lowest tested rate (300, 100, 30, 10 g/ha) with 80% or greater inhibition, approx. 14 days after treating, 30/21° C.
  Pre-emergence activity (GR80) SOLNI: 100 g/ha
SOLNI (black nightshade); Solanum nigrum, pre-emergence application, 10 g/ha, read-out: Percent inhibition, weed SOLNI
  inhibition at 10 g/ha: 0%
SOLNI (black nightshade); Solanum nigrum, pre-emergence application, 30 g/ha, read-out: Percent inhibition, weed SOLNI
  inhibition at 30 g/ha: 0%
SOLNI (black nightshade); Solanum nigrum, pre-emergence application, 100 g/ha, read-out: Percent inhibition, weed SOLNI
  inhibition at 100 g/ha: 0%
SOLNI (black nightshade); Solanum nigrum, pre-emergence application, 300 g/ha, read-out: Percent inhibition, weed SOLNI
  inhibition at 300 g/ha: 0%
SOLNI (black nightshade); Solanum nigrum, pre-emergence application, 900 g/ha, read-out: Percent inhibition, weed SOLNI
  inhibition at 900 g/ha: 0%
SINAR (wild mustard)
  PPI activity GR80, SINAR: 100 g/ha
BROTE (downy brome)
  PPI activity GR80, BROTE: * (activity observed, at least at highest rate, but <80% inhibition)
